Patent US20040019121A1, “Protein prenyl transferase inhibitors in the treatment of neuroinflammatory disease” (priority 2000, published 2004)

Columns and labels:
[1] = system: brain endothelial cells; assay: Adhesion of peripheral lymph node T-lymphocytes to brain endothelia; assay type: cell-based, rat; details: 10 μM
Description: (§1) The immortalised Lewis rat brain endothelial cell line GP8/3.9 (Greenwood et al., 1996) was maintained in Ham's F-10 medium supplemented with 17.5% FCS, 7.5 μg/ml endothelial cell growth supplement, 80 μg/ml heparin, 2 mM glutamine, 0.5 μg/ml vitamin C, 100 U/ml penicillin and 100 μg/ml streptomycin.
Adhesion assays were carried out as previously described (Pryce et. al., 1994; Adamson et al., 1999). Briefly, peripheral lymph node-derived cells (PLNC) were isolated and T-lymphocytes obtained after purification on nylon wool columns. These cells which represent non-antigen activated T-lymphocytes are therefore non-migratory but highly adhesive when activated with the mitogen concanavalin A (Pryce et al., 1994, Greenwood and Calder 1993; Male et al., 1994 ). PLNC were activated for 24 h with type V concanavalin A, washed twice in HBSS, and cells labelled with 3 μCi [^3H]-deoxy glucose per 10^6 cells in HBSS for 90 min at 37° C. After washing the cells three times with HBSS they were resuspended in RPMI 1640 medium containing 10% FCS. Endothelial monolayers grown on 96 well plates were prepared by removing the culture medium and washing the cells four times with HBSS. 200 μl of [^3H]-labelled PLNC at a concentration of 1×10^6/ml were then added to each well and incubated at 37° C. for 1.5 h. In each assay, β-emissions from each of 6 replicate blank wells were determined to provide a value for the total amount of radioactivity added per well and to allow calculation of the specific activity of the cells. After incubation, non-adherent cells were removed with four separate washes from the four poles of the well with 37° C. HBSS as previously described (Pryce et al, 1994: Adamson et al., 1999). Adherent PLNC were lysed with 2% SDS, the lysate removed, scintillant added and radioactivity quantitated by spectrometry. Results are expressed as the means±SEM between groups determined by Student's t-test.

[2] = system: brain endothelial cell monolayers (GP8/3.9); assay: T-lymphocyte transendothelial migration through brain endothelial cell monolayers; assay type: cell-based, rat
Description: as §1
Lewis rat T-lymphocyte cell lines specific for purified myelin basic protein were prepared as previously described (Pryce et al, 1997). Briefly, lymph nodes were collected from bovine MBP-immunised rats and the T-lymphocytes propagated by periodically alternating antigen activation with IL-2 stimulation. The cell lines express the marker of the CD4^+ T cell subset, are CD45RC^low and recognise MBP in the molecular context of MHC class II determinants (Pryce et al, 1997).
The ability of the immortalised cells to support the transendothelial migration of antigen specific T-lymphocytes was determined using a well-characterised assay as described extensively elsewhere (Adamson et al., 1999 and http://www.ucl.ac.uk/ioo/video/ sequence.avi) Briefly, T-lymphocytes were added (2×10^5 cells/well) to 24 well plates containing endothelial cell monolayers. Lymphocytes were allowed to settle and migrate over a 4 h period. To evaluate the level of migration co-cultures were placed on the stage of a phase-contrast inverted microscope housed in a temperature controlled (37° C.), 5% CO2 gassed chamber (Zeiss, Herts, U.K.). A 200×200 μm field was randomly chosen and recorded for 10 min spanning the 4 h time point using a camera linked to a time-lapse video recorder. Recordings were replayed at 160× normal speed and lymphocytes identified and counted which had either adhered to the surface of the monolayer or that had migrated through the monolayer. Lymphocytes on the surface of the monolayer were identified by their highly refractive morphology (phase-bright) and rounded or partially spread appearance. In contrast cells that had migrated through the monolayer were phase-dark, highly attenuated and were seen to probe under the endothelial cells in a distinctive manner (Pryce et al, 1997; Adamson et al, 1999: Etienne et al, 2000). All other data were expressed as a percentage of the control migrations. A minimum of three independent experiments using a minimum of 6 wells per assay were performed. The results are expressed as the means±SEM and significant differences between groups determined by Student±s t-test.

[3] = mice, daily injections of 25 mg/kg i.p.; cited from earlier work
[4] = system: Rho protein; assay: Rho protein association with brain endothelial cell membranes (Western blot); assay type: cell-based, rat; details: C3-transferase treatment of brain endothelial cells
Description: as §1
Ice-cold lysis buffer containing 10 mM Tris-HCl pH7.5, 5 mM MgCl2, 1 mM DTT and 1 mM PMSF was added to cells and incubated on ice for 10 min. Cells were subsequently homogenised and centrifuged at 5000 g for 10 min to remove nuclei. Supernatants were then centrifuged at 100,000 g in a Beckman Ultracentrifuge for 30 min to obtain crude membranes. Membrane pellets were washed with buffer containing 50 mM Tris-HCl pH7.5, 50 mM NaCl, 5 mM MgCl2, 1 mM DTT and 1 mM PMSF and re-centrifuged at 100,000 g for 30 min. Membrane pellets were then resuspended in sample buffer and proteins resolved on 12.5% SDS-PAGE gels. Proteins were electroblotted on nitrocellulose membranes and immunblotted with anti-Rho polyclonal antibody (Santa Cruz, Wilts, UK). Rho proteins within membrane fractions were visualised following incubation with a 1:15,000 dilution of goat anti-rabbit-HRP (Pierce, Chester, UK) and ECL development (Amersham, Bucks,UK).
Isoprenylation of Rho proteins are essential for their efficient association with cell membranes (Adamson et al, 1992).

[5] = 24 h treatment plus 90 min adhesion assay
[6] = 48 h treatment plus 90 min adhesion assay
[7] = 10 μM, brain EC treated 24 h prior to and during 4 h co-culture, mean±SEM
[8] = 10 μM, brain EC treated 48 h prior to and during 4 h co-culture, mean±SEM

Compound	T-lymphocyte adhesion to brain endothelial cells [1, 5]	T-lymphocyte adhesion to brain endothelial cells [1, 6]	transendothelial lymphocyte migration [2, 7]	transendothelial lymphocyte migration [2, 8]	time required to obtain steady state plasma concentrations [3] [days]	subcellular distribution of Rho proteins [4]	transendothelial lymphocyte migration ([2]; C3 transferase treatment of brain EC, n=12)
COC(=O)[C@H](CC(C)C)NC(=O)c1ccc(NC[C@@H](N)CS)cc1-c1cccc2ccccc12 [GGTI-298]	did not have any significant effect	did not have any significant effect	73.5±6.0 % of control migration	51.6±3.1 % of control migration			
COC(=O)[C@H](CCSC)NC(=O)c1ccc(NC[C@@H](N)CS)cc1-c1ccccc1 [FTI-277]	did not have any significant effect	did not have any significant effect	did not result in a significant alteration	77.7±4.9 % of control migration	3		
C3 transferase						did not affect	18.4±4.1 % of control values
